In the supplement of paper PMC10883282:

How the values were obtained:
Test in all cases: standardised AUC of viability dose-response curve (72 h) (fraction (0-1)); higher = less growth inhibition (more resistant)
[1] = tested on: A204
How it was run: (§1)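 Sarcoma cell lines in 384-well plates were treated in triplicate for 72 h with 2.5 µl of compound dilution series (compound-plate series 10 mM to 0.0002 mM, 1:3 steps). ATPLite viability was scaled 1 (full) to 0 (none) and fitted per drug and cell line with a four-parameter log-logistic model. The standardised area under the dose-response curve in log-dose space (modified drexplorer computeAUC) runs from 1 (no response) to 0 (full response).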

[2] = tested on: G401
How it was run: as §1

[3] = tested on: HS729
How it was run: as §1

[4] = tested on: HT1080
How it was run: as §1

[5] = tested on: KHOS-240S
How it was run: as §1

[6] = tested on: KHOS-NP
How it was run: as §1

[7] = tested on: MES-SA
How it was run: as §1

[8] = tested on: RD-ES
How it was run: as §1

[9] = tested on: RD
How it was run: as §1

[10] = tested on: SK-ES-1
How it was run: as §1

[11] = tested on: SK-LMS-1
How it was run: as §1

[12] = tested on: SW1353
How it was run: as §1

[13] = tested on: SW684
How it was run: as §1

[14] = tested on: SW872
How it was run: as §1

[15] = tested on: SW982
How it was run: as §1

[16] = tested on: SYO-1
How it was run: as §1

[17] = tested on: VA-ES-BJ
How it was run: as §1

## Cc1cc(F)c(C(=O)Nc2cccc(-c3nncn3C(C)C)n2)cc1-n1cnc(C2CC2)c1 [SELONSERTIB]
[1]
  standardised AUC: 0.94
[2]
  standardised AUC: 0.969
[3]
  standardised AUC: 0.992
[4]
  standardised AUC: 1
[5]
  standardised AUC: 0.977
[6]
  standardised AUC: 0.962
[7]
  standardised AUC: 0.959
[8]
  standardised AUC: 0.985
[9]
  standardised AUC: 0.995
[10]
  standardised AUC: 0.953
[11]
  standardised AUC: 0.988
[12]
  standardised AUC: 0.999
[13]
  standardised AUC: 0.981
[14]
  standardised AUC: 1
[15]
  standardised AUC: 1
[16]
  standardised AUC: 0.957
[17]
  standardised AUC: 0.976

## Cn1cnc2c(F)c(Nc3ccc(Br)cc3Cl)c(C(=O)NOCCO)cc21 [SELUMETINIB]
[1]
  standardised AUC: 0.953
[2]
  standardised AUC: 0.904
[3]
  standardised AUC: 0.955
[4]
  standardised AUC: 0.816
[5]
  standardised AUC: 0.89
[6]
  standardised AUC: 0.782
[7]
  standardised AUC: 0.919
[8]
  standardised AUC: 0.986
[9]
  standardised AUC: 0.784
[10]
  standardised AUC: 0.977
[11]
  standardised AUC: 0.748
[12]
  standardised AUC: 0.861
[13]
  standardised AUC: 0.931
[14]
  standardised AUC: 0.79
[15]
  standardised AUC: 0.926
[16]
  standardised AUC: 0.902
[17]
  standardised AUC: 0.887

## CO[C@H]1C[C@@H]2CC[C@@H](C)[C@@](O)(O2)C(=O)C(=O)N2CCCC[C@H]2C(=O)O[C@H]([C@H](C)C[C@@H]2CC[C@@H](OC(=O)C(C)(CO)CO)[C@H](OC)C2)CC(=O)[C@H](C)/C=C(\C)[C@@H](O)[C@@H](OC)C(=O)[C@H](C)C[C@H](C)/C=C/C=C/C=C/1C [TEMSIROLIMUS]
[1]
  standardised AUC: 0.592
[2]
  standardised AUC: 0.763
[3]
  standardised AUC: 0.887
[4]
  standardised AUC: 0.94
[5]
  standardised AUC: 0.854
[6]
  standardised AUC: 0.934
[7]
  standardised AUC: 0.511
[8]
  standardised AUC: 0.754
[9]
  standardised AUC: 0.731
[10]
  standardised AUC: 0.647
[11]
  standardised AUC: 0.64
[12]
  standardised AUC: 0.883
[13]
  standardised AUC: 0.933
[14]
  standardised AUC: 0.741
[15]
  standardised AUC: 0.743
[16]
  standardised AUC: 0.81
[17]
  standardised AUC: 0.588
